# Data from ChEMBL document CHEMBL3745638, “Synthesis and biological evaluation of a novel artesunate-podophyllotoxin conjugate as anticancer agent” (Bioorg Med Chem Lett, 2016).
# The source made the active and inactive calls. No cut-off for these calls is given here.
# Legend:
# [1] = Antiproliferative activity against human K562/ADR cells assessed as growth inhibition after 72 hrs by CCK-8 assay; assay type: functional, cell-based
# [2] = Cell cycle arrest in human K562/ADR cells assessed as accumulation in G2/M phase at 0.1 uM after 48 hrs by propidium iodide staining-based flow cytometry (reference value: 8.32 +/- 0.81%); assay type: functional
# K562 [3] = test: Resistance factor, ratio of IC50 for human K562/ADR cells to IC50 for human K562 cells; assay type: functional
# K562/Adr [4] = test: Induction of apoptosis in human K562/ADR cells assessed as early apoptotic cells at 0.1 uM after 48 hrs by Annexin V-APC/7-AAD staining based flow cytometry (reference value: 1.49%); assay type: functional
# HepG2 = test: Antiproliferative activity against human HepG2 cells assessed as growth inhibition after 72 hrs by CCK-8 assay; assay type: functional, cell-based; settings: HepG2, 72 h
# HUVEC = test: Antiproliferative activity against HUVEC assessed as growth inhibition after 72 hrs by CCK-8 assay; assay type: cell-based; settings: Homo sapiens
# K562/Adr [5] = test: Induction of apoptosis in human K562/ADR cells assessed as induction of cell shrinkage at 0.1 uM after 48 hrs by Hoechst 33342 staining based fluorescence microscopy; assay type: functional
# HeLa = test: Antiproliferative activity against human HeLa cells assessed as growth inhibition after 72 hrs by CCK-8 assay; assay type: functional, cell-based
# A549 = test: Antiproliferative activity against human A549 cells assessed as growth inhibition after 72 hrs by CCK-8 assay; assay type: functional, cell-based; settings: A549, 72 h
# K562/Adr [6] = test: Induction of apoptosis in human K562/ADR cells assessed as viable cells at 0.1 uM after 48 hrs by Annexin V-APC/7-AAD staining based flow cytometry (reference value: 93.25%); assay type: functional; settings: read-out: Activity
# K562/Adr [7] = test: Induction of apoptosis in human K562/ADR cells assessed as late apoptotic cells at 0.1 uM after 48 hrs by Annexin V-APC/7-AAD staining based flow cytometry (reference value: 1.69%); assay type: functional
# K562/Adr [8] = test: Induction of apoptosis in human K562/ADR cells assessed as nuclear fragmentation at 0.1 uM after 48 hrs by Hoechst 33342 staining based fluorescence microscopy; assay type: functional, cell-based
# Tubulin (Homo sapiens) [9] = molecular target: T1, Tubulin (Homo sapiens) (UniProt P68371+Q9H4B7+P0DPH7+P68366+Q13509+Q71U36+P04350+Q3ZCM7+P07437+P68363+Q9BQE3+Q6PEY2+Q13885+Q9BVA1+Q9BUF5); settings: K562/Adr, 0.2 uM
# Description: Inhibition of tubulin polymerization in human K562/ADR cells assessed as microtubule disruption at 0.2 uM after 8 hrs by DAPI staining based immunofluorescence microscopy
# K562/Adr [10] = test: Inhibition of P-glycoprotein in human K562/ADR cells at 0.1 uM after 48 hrs by Western blot analysis; assay type: cell-based
# Tubulin (Homo sapiens) [11] = molecular target: T1, Tubulin (Homo sapiens); settings: K562/Adr, 0.2 uM; remark: listed apart in the source
# Description: Inhibition of tubulin polymerization in human K562/ADR cells assessed as reduction in microtubule density at 0.2 uM after 8 hrs by DAPI staining based immunofluorescence microscopy
# K562 [12] = test: Antiproliferative activity against human K562 cells assessed as growth inhibition after 72 hrs by CCK-8 assay; assay type: functional, cell-based; settings: K562, 72 h
# K562/Adr [13] = test: Induction of apoptosis in human K562/ADR cells assessed as nuclear condensation at 0.1 uM after 48 hrs by Hoechst 33342 staining based fluorescence microscopy; assay type: functional, cell-based
# K562/Adr [14] = test: Induction of apoptosis in human K562/ADR cells assessed as necrotic cells at 0.1 uM after 48 hrs by Annexin V-APC/7-AAD staining based flow cytometry (reference value: 3.57%); assay type: functional
# Tubulin (Homo sapiens) [15] = molecular target: T1, Tubulin (Homo sapiens); test: Inhibition of tubulin polymerization in human K562/ADR cells assessed as microtubule disruption at 5 uM after 8 hrs by DAPI staining based immunofluorescence microscopy; assay type: cell-based
# K562/Adr [16] = test: Induction of apoptosis in human K562/ADR cells assessed as late apoptotic cells at 2.5 uM after 48 hrs by Annexin V-APC/7-AAD staining based flow cytometry (reference value: 1.69%); assay type: functional
# K562/Adr [17] = test: Induction of apoptosis in human K562/ADR cells assessed as early apoptotic cells at 2.5 uM after 48 hrs by Annexin V-APC/7-AAD staining based flow cytometry (reference value: 1.49%); assay type: functional
# K562/Adr [18] = test: Induction of apoptosis in human K562/ADR cells assessed as viable cells at 2.5 uM after 48 hrs by Annexin V-APC/7-AAD staining based flow cytometry (reference value: 93.25%); assay type: functional; settings: read-out: Activity
# K562/Adr [19] = test: Inhibition of P-glycoprotein in human K562/ADR cells at 2.5 uM after 48 hrs by Western blot analysis; assay type: cell-based
# K562/Adr [20] = test: Induction of apoptosis in human K562/ADR cells assessed as induction of cell shrinkage at 2.5 uM after 48 hrs by Hoechst 33342 staining based fluorescence microscopy; assay type: functional
# K562/Adr [21] = test: Induction of apoptosis in human K562/ADR cells assessed as necrotic cells at 2.5 uM after 48 hrs by Annexin V-APC/7-AAD staining based flow cytometry (reference value: 3.57%); assay type: functional
# Tubulin (Homo sapiens) [22] = molecular target: T1, Tubulin (Homo sapiens); test: Inhibition of tubulin polymerization in human K562/ADR cells assessed as reduction in microtubule density at 5 uM after 8 hrs by DAPI staining based immunofluorescence microscopy; assay type: cell-based
# K562/Adr [23] = test: Induction of apoptosis in human K562/ADR cells assessed as nuclear condensation at 2.5 uM after 48 hrs by Hoechst 33342 staining based fluorescence microscopy; assay type: functional, cell-based
# K562/Adr [24] = test: Induction of apoptosis in human K562/ADR cells assessed as nuclear fragmentation at 2.5 uM after 48 hrs by Hoechst 33342 staining based fluorescence microscopy; assay type: functional, cell-based
# [25] = Cell cycle arrest in human K562/ADR cells assessed as accumulation in G2/M phase at 2.5 uM after 48 hrs by propidium iodide staining-based flow cytometry (reference value: 8.32 +/- 0.81%); assay type: functional
# K562/Adr [26] = test: Inhibition of P-glycoprotein in human K562/ADR cells at 6.5 uM after 48 hrs by Western blot analysis; assay type: cell-based
# Tubulin (Homo sapiens) [27] = molecular target: T1, Tubulin (Homo sapiens); test: Inhibition of tubulin polymerization in human K562/ADR cells assessed as reduction in microtubule density at 13 uM after 16 hrs by DAPI staining based immunofluorescence microscopy; assay type: cell-based
# K562/Adr [28] = test: Induction of apoptosis in human K562/ADR cells assessed as nuclear condensation at 6.5 uM after 48 hrs by Hoechst 33342 staining based fluorescence microscopy; assay type: functional, cell-based
# K562/Adr [29] = test: Induction of apoptosis in human K562/ADR cells assessed as viable cells at 6.5 uM after 48 hrs by Annexin V-APC/7-AAD staining based flow cytometry (reference value: 93.25%); assay type: functional; settings: read-out: Activity
# Tubulin (Homo sapiens) [30] = molecular target: T1, Tubulin (Homo sapiens); test: Inhibition of tubulin polymerization in human K562/ADR cells assessed as microtubule disruption at 13 uM after 16 hrs by DAPI staining based immunofluorescence microscopy; assay type: cell-based
# K562/Adr [31] = test: Induction of apoptosis in human K562/ADR cells assessed as nuclear fragmentation at 6.5 uM after 48 hrs by Hoechst 33342 staining based fluorescence microscopy; assay type: functional, cell-based
# K562/Adr [32] = test: Induction of apoptosis in human K562/ADR cells assessed as late apoptotic cells at 6.5 uM after 48 hrs by Annexin V-APC/7-AAD staining based flow cytometry (reference value: 1.69%); assay type: functional
# K562/Adr [33] = test: Induction of apoptosis in human K562/ADR cells assessed as induction of cell shrinkage at 6.5 uM after 48 hrs by Hoechst 33342 staining based fluorescence microscopy; assay type: functional
# [34] = Cell cycle arrest in human K562/ADR cells assessed as accumulation in G2/M phase at 6.5 uM after 48 hrs by propidium iodide staining-based flow cytometry (reference value: 8.32 +/- 0.81%); assay type: functional
# K562/Adr [35] = test: Induction of apoptosis in human K562/ADR cells assessed as early apoptotic cells at 6.5 uM after 48 hrs by Annexin V-APC/7-AAD staining based flow cytometry (reference value: 1.49%); assay type: functional
# K562/Adr [36] = test: Induction of apoptosis in human K562/ADR cells assessed as necrotic cells at 6.5 uM after 48 hrs by Annexin V-APC/7-AAD staining based flow cytometry (reference value: 3.57%); assay type: functional
compound,measurement,setting,value
COc1cc([C@@H]2c3cc4c(cc3[C@H](O)[C@H]3COC(=O)[C@H]23)OCO4)cc(OC)c1OC [PODOFILOX],IC50,[1],85 nM
same,Activity,[2],33.2%
same,Ratio IC50,K562 [3],14.166
same,Activity,K562/Adr [4],24.7%
same,IC50,HepG2,14 nM
same,IC50,HUVEC,14 nM
same,Activity,K562/Adr [5],Active
same,IC50,HeLa,12 nM
same,IC50,A549,14 nM
same,viability at 0.1 µM,K562/Adr [6],54.4%
same,Activity,K562/Adr [7],10.65%
same,Activity,K562/Adr [8],Active
same,inhibition,Tubulin (Homo sapiens) [9],Active
same,inhibition,K562/Adr [10],Active
same,inhibition,Tubulin (Homo sapiens) [11],Active
same,IC50,K562 [12],6 nM
same,Activity,K562/Adr [13],Active
same,Activity,K562/Adr [14],10.26%
COc1cc([C@@H]2c3cc4c(cc3[C@H](OC(=O)CCC(=O)O[C@H]3O[C@@H]5O[C@@]6(C)CC[C@H]7[C@H](C)CC[C@@H]([C@H]3C)[C@@]57OO6)[C@H]3COC(=O)[C@H]23)OCO4)cc(OC)c1OC,IC50,[1],2020 nM
same,inhibition,Tubulin (Homo sapiens) [15],Active
same,Activity,K562/Adr [16],2.82%
same,Ratio IC50,K562 [3],4.454
same,IC50,HepG2,672 nM
same,IC50,HUVEC,720 nM
same,IC50,HeLa,936 nM
same,IC50,A549,3010 nM
same,Activity,K562/Adr [17],2.68%
same,viability at 2.5 µM,K562/Adr [18],88.1%
same,inhibition,K562/Adr [19],Active
same,Activity,K562/Adr [20],Active
same,IC50,K562 [12],453 nM
same,Activity,K562/Adr [21],6.39%
same,inhibition,Tubulin (Homo sapiens) [22],Active
same,Activity,K562/Adr [23],Active
same,Activity,K562/Adr [24],Active
same,Activity,[25],21.4%
C[C@H]1[C@H](OC(=O)CCC(=O)O)O[C@@H]2O[C@@]3(C)CC[C@H]4[C@H](C)CC[C@@H]1[C@@]24OO3 [ARTESUNATE],IC50,[1],6260 nM
same,Ratio IC50,K562 [3],1.042
same,IC50,HepG2,22200 nM
same,IC50,HUVEC,1090 nM
same,IC50,HeLa,19000 nM
same,IC50,A549,15900 nM
same,inhibition,K562/Adr [26],Active
same,inhibition,Tubulin (Homo sapiens) [27],Active
same,Activity,K562/Adr [28],Active
same,viability at 6.5 µM,K562/Adr [29],77.5%
same,inhibition,Tubulin (Homo sapiens) [30],Active
same,Activity,K562/Adr [31],Active
same,Activity,K562/Adr [32],9.31%
same,IC50,K562 [12],6000 nM
same,Activity,K562/Adr [33],Active
same,Activity,[34],16.9%
same,Activity,K562/Adr [35],5.97%
same,Activity,K562/Adr [36],7.2%
COc1cc([C@@H]2c3cc4c(cc3[C@@H](O[C@@H]3O[C@@H]5CO[C@@H](C)O[C@H]5[C@H](O)[C@H]3O)[C@H]3COC(=O)[C@H]23)OCO4)cc(OC)c1O [ETOPOSIDE],IC50,[1],2020 nM
same,Ratio IC50,K562 [3],4.903
same,IC50,HepG2,1750 nM
same,IC50,HUVEC,1340 nM
same,IC50,HeLa,1600 nM
same,IC50,A549,2680 nM
same,IC50,K562 [12],413 nM
